Where a name gives a salt, the structure may show the parent alone. Each block holds one compound with its values, some of them ahead of it.
Assays:
[1] = vs hydroxyurea; cited from earlier work
L1210 leukemia = settings: compared with other HCTs reported to date; cited from earlier work
[2] = test system: A2780 human ovarian carcinoma; settings: compared with other HCTs reported to date; cited from earlier work
M-109 lung carcinoma = settings: compared with other HCTs reported to date; cited from earlier work
[3] = Conversion of Prodrug I (para) to 3-AP in vitro in presence of S9 fraction of rat liver (FIG. 9); assay type: in vitro ADME
Experimental: FIG. 9 depicts a graph of the conversion of Prodrug I (para) to 3-AP in the presence of liver S9 fraction.
A 1 μM solution of Prodrug I in culture media was incubated with approximately 2.5 mg of liver S9 fraction.

[4] = Water solubility in deionized water; assay type: physicochemical; settings: for Dissolution observed in water: 3-AP: 5 mg in 100 mL, room temperature, 2 hours, prodrug I: 8 mg in 0.5 mL, a few minutes
Experimental: In order to test the water solubility of Prodrug I (disodium salt) compared to 3-AP, the following procedure was used. To test the water solubility of 3-AP in deionized water, 5 mg of 3-AP was placed in a 125 mL erlenmeyer flask to which was added 100 mL of water. The mixture was well shaken at room temperature. […] Total water solubility of 3-AP in deionized water was <1 mg/20 mL. In the case of prodrug I (para), 8 mg of the prodrug was placed in a 50 mL erlenmeyer flask.

[5] = Stability of Prodrug I in culture media alone, HPLC assay; assay type: in vitro ADME; settings: 37° C., two hours
M109 tumor = M109 tumor growth in Balb/c mice with two vehicle controls (FIG. 11); assay type: in vivo
Experimental: (§1) FIGS. 10 and 11 depict a graph comparing the reduction in M109 tumor growth in Balb/c Mice treated with a control, 3-AP or Prodrug I (para).
(§2) Balb/c mice were subcutaneously injected in the right flank on Day 0 with 0.2 mL of a 5×10^6 cell/mL suspension of M109 tumor cells which had been grown to log phase in culture, trypsin digested to separate, washed with PBS and reconstituted. Injections of 3-AP, Prodrug I, or Vehicle Control were given to the […] twice on Day 3, once on Day 4, twice on Day 6 and once on Day 7. Ten mice received only injections of 3 AP, each injection providing a dose of 4.5 mg/kg body weight. Ten mice received only injections of Prodrug I, each injection providing a dose of 10 mg/kg body weight. Ten mice received only injections of the vehicle control. […] FIG. 11 also compares the reduction in M109 tumor growth in Balb/c Mice using two vehicle controls (1-phosphate buffered […] and 2- 10% DMSO). […] Control I was used as a control for the prodrug; control 2 was used for the parent drug.
(§3) Balb/c mice were subcutaneously injected in the right flank on Day 0 with 0.2 mL of a 5×10^6 cell/mL suspension of M109 tumor cells which had been grown to log phase in culture, trypsin digested to separate, washed with PBS and reconstituted. […]

M109 tumor cells = assay: In vivo efficacy, M109 tumor growth in Balb/c mice (FIG. 10); settings: 10 mg/kg per injection vs equal molar dose of 3-AP (4.5 mg/kg)
Experimental: as §1, §2, §3

SMILES: Cc1ccnc(C=NNC(N)=S)c1N [Prodrug 3-AMP, 3-amino-4-methylpyridine-2-carboxaldehyde thiosemicarbazone]
- Antineoplastic activity in comparison with hydroxyurea (HU) [1]: significant antineoplastic activity
- Therapeutic effects against L1210 leukemia (L1210 leukemia): much better therapeutic effects
- Therapeutic effects against A2780 human ovarian carcinoma [2]: much better therapeutic effects
- Therapeutic effects against M-109 lung carcinoma (M-109 lung carcinoma): much better therapeutic effects

- Stability of recovered 3-AP in liver S9 fraction ([3]; liver S9 fraction): stable
- Dissolution observed in water [4]: not totally dissolved
- Total water solubility in deionized water ([4]; 120 min): < 1 mg/20 mL
SMILES: NC(=S)NN=Cc1ncccc1N [Prodrug 3-AP, 3-aminopyridine-2-carboxaldehyde thiosemicarbazone]
- Antineoplastic activity in comparison with hydroxyurea (HU) [1]: significant antineoplastic activity
- Therapeutic effects against L1210 leukemia (L1210 leukemia): much better therapeutic effects
- Therapeutic effects against A2780 human ovarian carcinoma [2]: much better therapeutic effects
- Therapeutic effects against M-109 lung carcinoma (M-109 lung carcinoma): much better therapeutic effects

SMILES: NC(=S)NN=Cc1ncccc1NC(=O)OCc1ccc(OP(=O)(O)O)cc1 [Prodrug I (disodium salt)]
- Dissolution observed in water [4]: readily dissolved
- Increase in water solubility over 3-AP ([4]; disodium salt vs 3-AP, deionized water): more than 300 fold
- solubility ([4]; disodium salt, deionized water, read-out: Total water solubility in deionized water): ≥ 16 mg/mL

SMILES: NC(=S)NN=Cc1ncccc1NC(=O)OCc1ccc(OP(=O)(O)O)cc1 [Prodrug I (para)]
- Course of prodrug concentration with liver S9 fraction ([3]; 1 μM, approximately 2.5 mg liver S9 fraction, 37° C.): decreased very rapidly
- Prodrug concentration after incubation with liver S9 fraction ([3]; 1 μM, approximately 2.5 mg liver S9 fraction, after 100 minutes at 37° C.): below detection limits
- Other metabolites found ([3]; 1 μM, liver S9 fraction, 37° C.): no other metabolites were found
- Rate of conversion of Prodrug I to 3-AP ([3]; liver S9 fraction, 37° C.): 20 nmole/min/mg rat liver tissue
- metabolised at 1 µM ([3]; rat, 1 μM, liver S9 fraction, 37° C., read-out: Prodrug recovered as 3-AP): ~80%
- Prodrug concentration in culture media alone [5]: relatively stable
- 3-AP found in culture media alone ([5]; HPLC): no 3-AP was found
- Anti-tumor activity compared to 3-AP or the two controls (M109 tumor; controls PBS and 10% DMSO): superior anti-tumor activity
- Reduction of M109 tumor growth compared with 3-AP (M109 tumor; mole-to-mole basis): more effective
- Reduction of tumor growth compared with 3-AP (M109 tumor cells; tumors measured Days 7, 10, 13, 17): significantly more effective
- Reduction of tumor growth compared with 3-AP (M109 tumor cells; tumors measured Days 7, 10, 13, 17, listed as Prodrug I): slightly more effective

— patent US5767134A, “Prodrug forms of ribonucleotide reductase inhibitors 3-AP and 3-AMP” (Vion Pharmaceuticals, Inc., priority 1997, dated 1998)
